Results on one molecule are retold here after US8124655B2, “Use of LR-90 and LR-102 to overcome insulin resistance” (City of Hope, priority 2007, dated 2012).

For assay [1] the following is noted: described in U.S. Pat. No. 6,787,566; cited from earlier work.
The test system of assay [2] is Zucker diabetic fatty rats (ZDF, fa/fa). In words: Metabolic data of ZDF rats treated with LR-90 or LR-102 (Example 2). Format: in vivo, rat. To be noted: ZDF rats at 40 weeks of age, Mean ± SEM. Here is the method:
The present Example presents the results of an investigation of the effects of LR-90, an inhibitor of AGE/ALE formation, in male Zucker diabetic fatty rats (ZDF, fa/fa) fed with Purina 5008 diet until 40 weeks of age, and their hetorozygous lean littermates (ZDF fa/+) as non-hyperglycemic controls. LR-90 at 50 mg/L of drinking water was given to a subgroup of ZDF rats after the rats developed spontaneous diabetes at 13 weeks of age. At 40 weeks of age, and before killing the animals, their weight was measured; HbA1c, plasma glucose, insulin, triglycerides, cholesterol, CRP and urinary albumin and creatinine concentrations were measured. After euthanizing all animals, organs such as the kidneys, eyeballs, liver, heart, aortae and pancreas were dissected and subjected to immunohistochemical staining, RT-PCR, Western blotting and microscopy.

Assay [3] has the same test system. Kind of assay: Pancreatic islet immunohistochemistry and PAMS staining (Example 2). Format: in vivo, rat. Conditions: FIG. 8. The text has this:
FIG. 7. Immunohistochemical analysis and quantification of islet cells. ZDF GM fa/fa rats and lean control rats were fed with high fat diet for 30 weeks and received either nothing or LR-90 or LR-102 in their drinking water. Pancreatic sections from various groups of animals were stained with anti-insulin antibody or anti-glucagon antibody. A. Representative images with the overlay of the insulin (green) and glucagon (red staining). […] B. Insulin-positive β-cell-to-glucagon-ratio was also measured from these images.
FIG. 8. Periodic acid methenamine silver (PAMS) staining of pancreatic tissues. Sections from cryopreserved pancreas of each group of animals on the study were stained with PAMS and examined under light microscopy.
LR-90 at 50 mg/L of drinking water was given to a subgroup of ZDF rats after the rats developed spontaneous diabetes at 13 weeks of age. At 40 weeks of age, and before killing the animals, their weight was measured; HbA1c, plasma glucose, insulin, triglycerides, cholesterol, CRP and urinary albumin and creatinine concentrations were measured. After euthanizing all animals, organs such as the kidneys, eyeballs, liver, heart, aortae and pancreas were dissected and subjected to immunohistochemical staining, RT-PCR, Western blotting and microscopy.

As to `CC(C)(Oc1ccc(N=Cc2ccc(C=Nc3ccc(OC(C)(C)C(=O)O)cc3)cc2)cc1)C(=O)O` [LR-102, 1,4-benzene-bis[4-methyleneaminophenoxyisobutyric acid]], the “breaking AGE-protein cross-links” value in assay [1] is listed as “active”. This molecule came in with a Plasma glucose in assay [2] (drug in drinking water) of 29.8 ± 3.2 mmol/dL. Besides, in assay [2], the Cholesterol came to 290 ± 35 mg/dL; the HbA1c turned out to be 2.80 ± 0.12%; the “Plasma CRP” value is on record as 0.77 ± 0.05 mg/mL; the “Plasma insulin, ELISA” value was 0.68 ± 0.10 ng/mL. Also, in assay [2], the “Plasma insulin, RIA” value came to 0.65 ± 0.10 ng/mL; the Triglycerides stood at 536 ± 63 mg/dL; the “Urinary Albumin” value was 35.4 ± 15.8 mg/24 h. For the same molecule, the “PAMS staining of pancreatic islets” value in assay [3] is recorded as “amelioration”.
